This test deals with peptidylglycine α-amidating monooxygenase (PAM). The test is described as follows: α-Amidation of rhPTH(1-31)Gly32-OH to rhPTH(1-31)-NH2 with PAM in the presence of α-keto acids/esters (CEX-HPLC area %). Type of test: biochemical. Conditions: 4 mg/mL rhPTH(1-31)Gly32-OH, 15,000 U/mL PAM, MES pH 6.3-6.5, 4 hours at 37° C. The source says:
Because the R group is unchanged in this reaction, a large number of R moieties is possible. Applicants have tested a number of keto acids (or corresponding esters or salts thereof), and have reported their efficacy in Table 1 below for the amidation of recombinant human parathyroid hormone truncate (first 31 amino acids of PTH followed by C-terminal glycine). Amidation using catalase is also reported in the footnotes to Table 1. […] A preferred concentration was chosen for each compound. Also, separate controls are therefore used with respect to each of the compounds tested in Table 1, so that each compound's performance may be compared to its corresponding control. […] The control values that are set forth in Table 1 are typical values observed for amidation of rhPTH(1-31)Gly32-OH in the absence of the reaction-enhancing compounds of the invention.
To determine the information in Table 1 below, stock solutions of all reagents were prepared in water. Amidations were carried out under the following conditions: 4 mg/mL rhPTH(1-31)Gly32-OH, 30 mM 2-morpholinoethanesulfonic acid (MES) pH [6.3-6.5], 0.5 μM cupric sulfate, 5 mM potassium iodide, 2 mM ascorbate, [0-1%] ethanol and 15,000 U/mL PAM. All reactions were incubated for 4 hours at 37° C. Reagents were added in the following order: rhPTH(1-31)Gly32-OH, water, MES, potassium iodide, ethanol, cupric sulfate, α-keto acid or ester, ascorbate and PAM. All reactions were acidified to pH 2.0 with 6% trifluoroacetic acid and analyzed by CEX-HPLC (area %) to detect formation of the desired product rhPTH(1-31)NH2.

Some results are limits rather than exact numbers.

The values below come from patent publication US8163871B2, “Enzymatic reactions in the presence of keto acids” (Unigene Laboratories, Inc., priority 2004, dated 2012).

For 2-Keto glutaric acid, sodium salt, where the note is “10 mM compound”, the “% Conversion” value was found to be 76%.

In the case of `CCC(=O)C(=O)[O-].[Na+]` [2-Ketobutyric acid, sodium salt], the “% Conversion” value (16 mM compound) was determined as 96%.

Regarding `CC(C)C(=O)C(=O)[O-].[Na+]` [3-Methyl-2-oxobutanoic acid, sodium salt], the “% Conversion” value (64 mM compound) is 78%. On to `CCC(C)C(=O)C(=O)[O-].[Na+]` (stereo not shown) [3-Methyl-2-oxopentanoic acid, sodium salt], for which the “% Conversion” value (10-150 mM compound) is on record as “≦61%”. In the case of `CC(C)CC(=O)C(=O)[O-].[Na+]` [4-Methyl-2-oxopentanoic acid, sodium salt], where the note is “10-150 mM compound”, the “% Conversion” value is reported as less than 48%. For the compound `O=C(O)C(=O)c1ccccc1` [Benzoylformic acid], under “10 mM compound”, the “% Conversion” value stood at 82%.

With `CCOC(=O)C(C)=O` [Ethyl pyruvate], for the setting “50 mM compound”, the “% Conversion” value is 89%. As for `COC(=O)C(C)=O` [Methyl pyruvate], the “% Conversion” value (50 mM compound) is given as 86%. In the case of `CC(=O)C(=O)O` [Pyruvic acid], the “% Conversion” value (6 mM compound, average of triplicate values) is reported as 86^a %. With `CC(=O)C(=O)[O-].[Na+]` [Sodium pyruvate], where the note is “8 mM compound”, the “% Conversion” value is 95%.
